Tests used:
goosegrass = assay: Test C pre-/postemergence herbicide test; assay type: in vivo, Eleusine indica; conditions: for Plant response rating, Goosegrass: preemergence
Method in brief: (§1)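 Visual ratings on a 0–100 scale (100 = complete control) made versus untreated controls after 12 to 14 greenhouse days. Test chemicals, formulated in surfactant-containing non-phytotoxic solvent, applied preemergence to planted seeds or postemergence to 1- to 4-leaf plants (2 to 18 cm).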

yellow nutsedge = assay: Test C pre-/postemergence herbicide test; assay type: in vivo, Cyperus esculentus; conditions: for Plant response rating, Nutsedge, Yellow: preemergence
Method in brief: as §1

velvetleaf = assay: Test A pre-/postemergence herbicide test; assay type: in vivo, Abutilon theophrasti
Method in brief: (§2)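 Visual injury scores on a 0–100 scale (100 = complete control) taken about ten days post-treatment in greenhouse against untreated controls; dash means no result. Treatments: preemergence soil spray and postemergence spray to runoff on one- to two-leaf plants 2 to 10 cm tall, surfactant-containing formulation.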

woolly cupgrass = assay: Test C pre-/postemergence herbicide test; assay type: in vivo, Eriochloa villosa; conditions: for Plant response rating, Cupgrass, Woolly: preemergence
Method in brief: as §1

kochia = assay: Test C pre-/postemergence herbicide test; assay type: in vivo, Kochia scoparia; conditions: for Plant response rating, Kochia: preemergence
Method in brief: as §1

Surinam grass = assay: Test C pre-/postemergence herbicide test; assay type: in vivo, Urochloa decumbens; conditions: for Plant response rating, Surinam Grass: preemergence
Method in brief: as §1

soybean = assay: Test C pre-/postemergence herbicide test; assay type: in vivo, Glycine max; conditions: for Plant response rating, Soybean: preemergence
Method in brief: as §1

giant foxtail = assay: Test A pre-/postemergence herbicide test; assay type: in vivo, Setaria faberi
Method in brief: as §2

lambsquarters = assay: Test C pre-/postemergence herbicide test; assay type: in vivo, Chenopodium album; conditions: for Plant response rating, Lambsquarters: preemergence
Method in brief: as §1

corn = assay: Test C pre-/postemergence herbicide test; assay type: in vivo, Zea mays; conditions: for Plant response rating, Corn: preemergence
Method in brief: as §1

pigweed = assay: Test C pre-/postemergence herbicide test; assay type: in vivo, Amaranthus retroflexus; conditions: for Plant response rating, Pigweed: preemergence
Method in brief: as §1

morningglory = assay: Test C pre-/postemergence herbicide test; assay type: in vivo, Ipomoea coccinea; set-up: key to Plant response rating, Morningglory: 0 = no effect, 100 = complete control; conditions: for Plant response rating, Morningglory: preemergence
Method in brief: as §1

[1] = 125 g ai/ha, scale 0 (no effect) to 100 (complete control), visual, 12 to 14 days
[2] = Preemergence, 500 g ai/ha, scale 0 to 100, 0 no effect, 100 complete control
[3] = Postemergence, 500 g ai/ha, 0 to 100 scale, 0 no effect, 100 complete control
[4] = Postemergence, 2000 g ai/ha, 0 to 100 scale, 0 no effect, 100 complete control
[5] = Preemergence, 2000 g ai/ha, visual rating, 0 to 100 scale (0 no effect, 100 complete control)
[6] = preemergence, 500 g ai/ha, visual injury, 0 to 100 scale (0 no effect, 100 complete control)
[7] = 500 g ai/ha, scale 0 to 100 (0 no effect, 100 complete control), visual, 12 to 14 days

CCNC(=O)c1cccc(NC(=O)c2sc(C(C)(C)C)nc2C)c1 [Compound 198]
25: Soybean plant response rating (soybean; [2])
85: Velvetleaf plant response rating (velvetleaf; [5]) | Plant response rating, Lambsquarters (lambsquarters; 62 g ai/ha, scale 0 to 100) | Plant response rating, Morningglory (morningglory; 250 g ai/ha, scale 0-100) | Morningglory plant response rating (morningglory; [2])
90: Foxtail, Giant plant response rating (giant foxtail; [6])
80: Plant response rating, Goosegrass (goosegrass; [1]) | Plant response rating, Kochia (kochia; [1])
65: Plant response rating, Foxtail, Giant (giant foxtail; [4])
0: Plant response rating, Nutsedge, Yellow (yellow nutsedge; 62 g ai/ha, scale 0 to 100) | Plant response rating, Nutsedge, Yellow (yellow nutsedge; [1]) | Plant response rating, Nutsedge, Yellow (yellow nutsedge; 250 g ai/ha, scale 0-100) | Plant response rating, Cupgrass, Woolly (woolly cupgrass; 62 g ai/ha, scale 0 to 100) | Plant response rating, Surinam Grass (Surinam grass; 62 g ai/ha, scale 0 to 100) | Plant response rating, Soybean (soybean; 62 g ai/ha, scale 0 to 100) | Plant response rating, Soybean (soybean; [1]) | Plant response rating, Soybean (soybean; 250 g ai/ha, scale 0-100) | Plant response rating, Corn (corn; 62 g ai/ha, scale 0 to 100) | Plant response rating, Corn (corn; [1]) | Plant response rating, Corn (corn; 250 g ai/ha, scale 0-100) | Corn plant response rating (corn; [2])
30: Velvetleaf plant response rating (velvetleaf; [3]) | Plant response rating, Surinam Grass (Surinam grass; 250 g ai/ha, scale 0-100) | Foxtail, Giant plant response rating (giant foxtail; [3])
5: Nutsedge, Yellow plant response rating (yellow nutsedge; [2]) | Plant response rating, Cupgrass, Woolly (woolly cupgrass; [1])
20: Plant response rating, Goosegrass (goosegrass; 62 g ai/ha, scale 0 to 100)
50: Plant response rating, Kochia (kochia; 62 g ai/ha, scale 0 to 100)
100: Goosegrass plant response rating (goosegrass; [2]) | Plant response rating, Kochia (kochia; 250 g ai/ha, scale 0-100) | Kochia plant response rating (kochia; [2]) | Surinam Grass plant response rating (Surinam grass; [2]) | Plant response rating, Lambsquarters (lambsquarters; [1]) | Plant response rating, Lambsquarters (lambsquarters; 250 g ai/ha, scale 0-100) | Lambsquarters plant response rating (lambsquarters; [2]) | Plant response rating, Pigweed (pigweed; 62 g ai/ha, scale 0 to 100) | Plant response rating, Pigweed (pigweed; [1]) | Plant response rating, Pigweed (pigweed; 250 g ai/ha, scale 0-100) | Pigweed plant response rating (pigweed; [2])
10: Plant response rating, Cupgrass, Woolly (woolly cupgrass; 250 g ai/ha, scale 0-100) | Plant response rating, Surinam Grass (Surinam grass; [1]) | Plant response rating, Morningglory (morningglory; 62 g ai/ha, scale 0 to 100)
70: Cupgrass, Woolly plant response rating (woolly cupgrass; [2]) | Plant response rating, Morningglory (morningglory; [1])
45: Velvetleaf plant response rating (velvetleaf; [6])
35: Plant response rating, Velvetleaf (velvetleaf; [4])
95: Plant response rating, Goosegrass (goosegrass; 250 g ai/ha, scale 0-100) | Foxtail, Giant plant response rating (giant foxtail; [5])

CCNC(=O)c1cccc(NC(=O)c2sc(C(C)(C)C)nc2CC)n1 [Compound 213]
80: Plant response rating, Goosegrass (goosegrass; 250 g ai/ha, scale 0-100) | Plant response rating, Lambsquarters (lambsquarters; 62 g ai/ha, scale 0 to 100) | Plant response rating, Pigweed (pigweed; 62 g ai/ha, scale 0 to 100)
15: Velvetleaf plant response rating (velvetleaf; [6])
25: Plant response rating, Velvetleaf (velvetleaf; [4]) | Plant response rating, Foxtail, Giant (giant foxtail; [4])
60: Plant response rating, Goosegrass (goosegrass; [1]) | Plant response rating, Surinam Grass (Surinam grass; [7]) | Foxtail, Giant plant response rating (giant foxtail; [6])
30: Velvetleaf plant response rating (velvetleaf; [3]) | Plant response rating, Cupgrass, Woolly (woolly cupgrass; [7]) | Plant response rating, Corn (corn; 250 g ai/ha, scale 0-100)
85: Plant response rating, Kochia (kochia; [1]) | Foxtail, Giant plant response rating (giant foxtail; [5])
20: Plant response rating, Surinam Grass (Surinam grass; 250 g ai/ha, scale 0-100) | Foxtail, Giant plant response rating (giant foxtail; [3])
95: Plant response rating, Lambsquarters (lambsquarters; [1])
40: Plant response rating, Corn (corn; [7])
90: Plant response rating, Goosegrass (goosegrass; [7])
0: Plant response rating, Goosegrass (goosegrass; 62 g ai/ha, scale 0 to 100) | Plant response rating, Nutsedge, Yellow (yellow nutsedge; 62 g ai/ha, scale 0 to 100) | Plant response rating, Nutsedge, Yellow (yellow nutsedge; [1]) | Plant response rating, Nutsedge, Yellow (yellow nutsedge; 250 g ai/ha, scale 0-100) | Plant response rating, Nutsedge, Yellow (yellow nutsedge; [7]) | Plant response rating, Cupgrass, Woolly (woolly cupgrass; 62 g ai/ha, scale 0 to 100) | Plant response rating, Cupgrass, Woolly (woolly cupgrass; [1]) | Plant response rating, Cupgrass, Woolly (woolly cupgrass; 250 g ai/ha, scale 0-100) | Plant response rating, Surinam Grass (Surinam grass; 62 g ai/ha, scale 0 to 100) | Plant response rating, Surinam Grass (Surinam grass; [1]) | Plant response rating, Soybean (soybean; 62 g ai/ha, scale 0 to 100) | Plant response rating, Soybean (soybean; [1]) | Plant response rating, Soybean (soybean; 250 g ai/ha, scale 0-100) | Plant response rating, Soybean (soybean; [7]) | Plant response rating, Corn (corn; 62 g ai/ha, scale 0 to 100) | Plant response rating, Corn (corn; [1]) | Plant response rating, Morningglory (morningglory; 62 g ai/ha, scale 0 to 100) | Plant response rating, Morningglory (morningglory; [1]) | Plant response rating, Morningglory (morningglory; 250 g ai/ha, scale 0-100) | Plant response rating, Morningglory (morningglory; [7])
100: Plant response rating, Kochia (kochia; 250 g ai/ha, scale 0-100) | Plant response rating, Kochia (kochia; [7]) | Plant response rating, Lambsquarters (lambsquarters; 250 g ai/ha, scale 0-100) | Plant response rating, Lambsquarters (lambsquarters; [7]) | Plant response rating, Pigweed (pigweed; [1]) | Plant response rating, Pigweed (pigweed; 250 g ai/ha, scale 0-100) | Plant response rating, Pigweed (pigweed; [7])
35: Velvetleaf plant response rating (velvetleaf; [5])

Reference: patent US20060069132A1, “Azolecarboxamide herbicides” (priority 2004, published 2006)
